Converted amounts (≈) assume the structure as drawn. Like-named read-outs stand apart in the source and are kept apart here.
How the values were obtained:
Format in all cases: cell-based
[1] = tested on: Clostridium difficile JCM1296 strain; test: microbe, parasite or virus in culture; settings: Clostridioides difficile, JCM1296, read-out: MIC Clostridium difficile JCM1296
[2] = tested on: Escherichia coli BE1121 strain; test: MIC for Escherichia coli BE1121 strain; settings: Escherichia coli, BE1121STRAIN, read-out: MIC Escherichia coli BE1121
[3] = tested on: Clostridium perfringens PB6K strain; test: microbe, parasite or virus in culture; settings: Clostridium perfringens, PB6KSTRAIN, read-out: MIC Clostridium perfringens PB6K, PB6K strain; CD medium, 37° C. overnight, 10% CO2-containing anaerobic conditions
[4] = tested on: Enterococcus faecalis 5038 strain; test: MIC for Enterococcus faecalis 5038 strain; settings: read-out: MIC Enterococcus faecalis 5038
[5] = tested on: Escherichia coli K-12 strain; test: MIC for Escherichia coli K-12 strain; settings: Escherichia coli, K12STRAIN, read-out: MIC Escherichia coli K12
[6] = tested on: Staphylococcus aureus MRSA No. 17 (methicillin-resistant Staphylococcus aureus: MRSA); test: MIC for Staphylococcus aureus MRSA No. 17; settings: read-out: MIC Straphyrococcus aureus MRSA No. 17 (MRSA)
[7] = tested on: Staphylococcus aureus Smith strain; test: MIC for Staphylococcus aureus Smith strain; settings: read-out: MIC Straphyrococcus aureus Smith
[8] = tested on: Enterococcus faecalis NCTC12201 strain (vancomycin-resistant Enterococcus: VRE); test: MIC for Enterococcus faecalis NCTC12201 strain (VRE); settings: read-out: MIC Enterococcus faecalis NCTC 12201 (VRE)
[9] = tested on: Staphylococcus aureus 209P strain; test: MIC for Staphylococcus aureus 209P strain; settings: Staphylococcus aureus, read-out: MIC Straphyrococcus aureus 209P
[10] = BE1121 strain, regular bouillon medium, 37° C. overnight, turbidity
[11] = 5038 strain, Heart Infusion Broth medium, 37° C. overnight, turbidity
[12] = K-12 strain, regular bouillon medium, 37° C. overnight, turbidity
[13] = MRSA No. 17, regular bouillon medium, 37° C. overnight, turbidity
[14] = Smith strain, regular bouillon medium, 37° C. overnight, turbidity
[15] = NCTC12201 strain (VRE), Heart Infusion Broth medium, 37° C. overnight, turbidity
[16] = 209P strain, regular bouillon medium, 37° C. overnight, turbidity

| Compound | MIC [1] [mg/L] | MIC [2, 10] [mg/L] | MIC [3] [mg/L] | MIC [4, 11] [mg/L] | MIC [5, 12] [mg/L] | MIC [6, 13] [mg/L] | MIC [7, 14] [mg/L] | MIC [8, 15] [mg/L] | MIC [9, 16] [mg/L] | MIC ([4]; 5038STRAIN) [mg/L] | MIC ([6]; MRSA) [mg/L] | MIC [7] [mg/L] | MIC [8] [mg/L] | MIC [2] [mg/L] | MIC [5] [mg/L] | MIC ([9]; 209P) [mg/L] |
| --- | --- | --- | --- | --- | --- | --- | --- | --- | --- | --- | --- | --- | --- | --- | --- | --- |
| O=C(NCC(=O)c1c(O)c2ccccc2oc1=O)c1ccccc1 [B013, 3-benzoylaminoacetyl-4-hydroxycoumarin] | 128 (≈ 396 µM) | 256 (≈ 792 µM) | 128 (≈ 396 µM) | 256 (≈ 792 µM) | 256 (≈ 792 µM) | 256 (≈ 792 µM) | 256 (≈ 792 µM) | 256 (≈ 792 µM) | 256 (≈ 792 µM) | – | – | – | – | – | – | – |
| CCCCCCCCCCOC(C)C(=O)c1c(O)c2ccccc2oc1=O (stereo not drawn) [B017, 3-(2-decyloxypropionyl)-4-hydroxycoumarin] | < 0.125 | 256 (≈ 684 µM) | 0.25 (≈ 0.668 µM) | – | 256 (≈ 684 µM) | – | – | – | 8 (≈ 21.4 µM) | 1 (≈ 2.67 µM) | 4 (≈ 10.7 µM) | 2 (≈ 5.34 µM) | 0.5 (≈ 1.34 µM) | – | – | – |
| CCCCCCCCCCSCC(O)=C1C(=O)N(C(=O)Nc2ccccc2)c2ccc(F)cc21 [A037, N-(phenylaminocarbonyl)-3-decylthioacetyl-5-fluoro-2-oxyindole] | 0.5 (≈ 1.03 µM) | 256 (≈ 528 µM) | 1 (≈ 2.06 µM) | 0.5 (≈ 1.03 µM) | 256 (≈ 528 µM) | 2 (≈ 4.13 µM) | 0.25 (≈ 0.516 µM) | 0.5 (≈ 1.03 µM) | 2 (≈ 4.13 µM) | – | – | – | – | – | – | – |
| CCCCC1CCC(C(O)=C2C(=O)N(C(=O)OC(C)(C)C)c3ccccc32)CC1 (stereo not drawn) [A008, N-Boc-3-(4-butylcyclohexylcarbonyl)-2-oxyindole] | 1 (≈ 2.5 µM) | 128 (≈ 320 µM) | 2 (≈ 5.01 µM) | 128 (≈ 320 µM) | 128 (≈ 320 µM) | 256 (≈ 641 µM) | 128 (≈ 320 µM) | 128 (≈ 320 µM) | 64 (≈ 160 µM) | – | – | – | – | – | – | – |
| CCCCCCCCCC(=O)NCC(=O)c1c(O)c2ccccc2oc1=O [B016, 3-decanoylaminoacetyl-4-hydroxycoumarin] | 8 (≈ 21.4 µM) | 256 (≈ 686 µM) | 16 (≈ 42.8 µM) | 256 (≈ 686 µM) | 256 (≈ 686 µM) | 256 (≈ 686 µM) | 256 (≈ 686 µM) | 256 (≈ 686 µM) | 256 (≈ 686 µM) | – | – | – | – | – | – | – |
| CCCCCCCCCC(=O)c1c(O)c2ccc(OC)cc2oc1=O [B001, 3-decanoyl-4-hydroxy-7-methoxycoumarin] | 64 (≈ 185 µM) | 256 (≈ 739 µM) | 64 (≈ 185 µM) | 64 (≈ 185 µM) | 256 (≈ 739 µM) | 256 (≈ 739 µM) | 128 (≈ 369 µM) | 64 (≈ 185 µM) | 256 (≈ 739 µM) | – | – | – | – | – | – | – |
| CCCCCCCCCCOCC(O)=C1C(=O)N(C(=O)Nc2ccc(OC)cc2)c2ccccc21 [A045, N-(4-methoxyphenylaminocarbonyl)-3-decyloxyacetyl-2-oxyindole] | 0.5 (≈ 1.04 µM) | 128 (≈ 266 µM) | 8 (≈ 16.6 µM) | 4 (≈ 8.32 µM) | 128 (≈ 266 µM) | 256 (≈ 533 µM) | 128 (≈ 266 µM) | 64 (≈ 133 µM) | 256 (≈ 533 µM) | – | – | – | – | – | – | – |
| CCCCCCCCCCOCC(O)=C1C(=O)N(C(=O)OC(C)(C)C)c2ccc(F)cc21 [A055, N-Boc-3-decyloxyacetyl-5-fluoro-2-oxyindole] | 0.25 (≈ 0.556 µM) | 256 (≈ 569 µM) | 2 (≈ 4.45 µM) | 128 (≈ 285 µM) | 256 (≈ 569 µM) | 128 (≈ 285 µM) | 128 (≈ 285 µM) | 128 (≈ 285 µM) | 128 (≈ 285 µM) | – | – | – | – | – | – | – |
| CCCCCOCC(=O)c1c(O)c2ccccc2oc1=O [B021, 4-hydroxy-3-(pentyloxyacetyl)coumarin] | 8 (≈ 27.6 µM) | – | 32 (≈ 110 µM) | – | – | – | – | – | – | 32 (≈ 110 µM) | 123 (≈ 424 µM) | 128 (≈ 441 µM) | 64 (≈ 220 µM) | 16 (≈ 55.1 µM) | 128 (≈ 441 µM) | 32 (≈ 110 µM) |
